Each structure is given as a SMILES string.

In this assay the target is T1, human macrophage elastase (HME/hMMP-12) (Homo sapiens, UniProt P39900).
T1 construct: purchased R&D Systems 917-MP
T1 sequence (P39900 106-470): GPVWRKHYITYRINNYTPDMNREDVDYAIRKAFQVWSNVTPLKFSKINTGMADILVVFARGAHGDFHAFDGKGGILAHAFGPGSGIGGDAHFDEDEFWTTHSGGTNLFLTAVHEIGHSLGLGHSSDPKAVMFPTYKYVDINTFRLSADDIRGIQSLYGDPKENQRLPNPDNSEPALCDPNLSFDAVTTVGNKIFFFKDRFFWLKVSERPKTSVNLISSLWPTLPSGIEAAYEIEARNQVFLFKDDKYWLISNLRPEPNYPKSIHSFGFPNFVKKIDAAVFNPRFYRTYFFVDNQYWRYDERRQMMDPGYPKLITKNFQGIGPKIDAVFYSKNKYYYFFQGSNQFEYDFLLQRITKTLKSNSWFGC
Description: In vitro HME inhibition test (standard or high-sensitivity). The note with it: in some cases mean values, rounded to two significant figures. The class given is biochemical. On the procedure: The potency of the compounds according to the invention with respect to HME (MMP-12) is determined in an in vitro inhibition test. The HME-mediated amidolytic cleavage of a suitable peptide substrate leads to an increase in fluorescent light therein. The signal intensity of the fluorescent light is directly proportional to the enzyme activity. The active concentration of a test compound at which half the enzyme is inhibited (50% signal intensity of the fluorescent light) is reported as the IC50 value.
In a 384 hole microtiter plate, in a total test volume of 41 μl, the test buffer (0.1 M HEPES pH 7.4, 0.15 M NaCl, 0.03 M CaCl2, 0.004 mM ZnCl2, 0.02 M EDTA, 0.005% Brij®), the enzyme (0.5 nM HME; R&D Systems, 917-MP, autocatalytic activation according to the manufacturer's instructions) and the intramolecularly quenched substrate [5 μM Mca-Pro-Leu-Gly-Leu-Glu-Glu-Ala-Dap(Dnp)-NH2; Bachem, M-2670] are incubated in the absence and presence of the test substance (as a solution in DMSO) at 37° C. for two hours. The fluorescence intensity of the test mixtures is measured (excitation […], emission 393 nm). The IC50 values are ascertained by plotting the fluorescent light intensity against the active ingredient concentration.
In this case, an enzyme concentration ten times lower is used (final concentration, e.g. 0.05 nM) in order to achieve an increased test sensitivity. The incubation period chosen for the test is correspondingly longer (e.g. 16 hours).
One may read the IC50 as the midpoint of a concentration-inhibition curve. Higher therefore signals weaker potency. `O=C(CC(CCn1nnc2ccccc2c1=O)C(=O)O)c1cc2cc(OCc3ccc(F)cc3)ccc2o1` (racemic) [Example 22, (+/−)-4-{5-[(4-Fluorobenzyl)oxy]-1-benzofur-2-yl}-4-oxo-2-[2-(4-oxo-1,2,3-benzotriazin-3(4H)-yl)ethyl]butanoic acid] returned an IC50 of 2.5 nM. In other words, the single-digit nanomolar range.
For `O=C(CC(CCn1nnc2ccccc2c1=O)C(=O)O)c1cc2cc(OCc3ccccc3F)ccc2o1` (racemic) [Example 45, (+/−)-4-{5-[(2-Fluorobenzyl)oxy]-1-benzofur-2-yl}-4-oxo-2-[2-(4-oxo-1,2,3-benzotriazin-3(4H)-yl)ethyl]butanoic acid] the value was 2.3 nM; for `O=C(CC(CCn1nnc2ccccc2c1=O)C(=O)O)c1coc2cc(OCC3CCCCC3)ccc12` (single isomer, unassigned; (-)) [Example 83, (−)-4-[6-(Cyclohexylmethoxy)-1-benzofur-3-yl]-4-oxo-2-[2-(4-oxo-1,2,3-benzotriazin-3(4H)-yl)ethyl]butanoic acid], 1.4 nM; for `CCCCCCCOc1ccc2cc(C(=O)CC(CCn3nnc4ccccc4c3=O)C(=O)O)oc2c1` (single isomer, unassigned; (-)) [Example 68, (−)-4-[6-(Heptyloxy)-1-benzofur-2-yl]-4-oxo-2-[2-(4-oxo-1,2,3-benzotriazin-3(4H)-yl)ethyl]butanoic acid], 890 nM.
For `O=C(CC(CCn1nnc2ccccc2c1=O)C(=O)O)c1noc2cc(OCC3CCCC3)ccc12` (racemic) [Example 152, (+/−)-4-[6-(Cyclopentylmethoxy)-1,2-benzoxazol-3-yl]-4-oxo-2-[2-(4-oxo-1,2,3-benzotriazin-3(4H)-yl)ethyl]butanoic acid] the value was 1.4 nM; for `O=C(CC(CCn1nnc2ccccc2c1=O)C(=O)O)c1cc2cc(OCC3CCCCC3)ccc2o1` (single isomer, unassigned; enantiomer 2) [Example 10, (+)-4-[5-(Cyclohexylmethoxy)-1-benzofur-2-yl]-4-oxo-2-[2-(4-oxo-1,2,3-benzotriazin-3(4H)-yl)ethyl]butanoic acid (enantiomer 2)], 0.62 nM.
For `O=C(CC(CCn1nnc2ccccc2c1=O)C(=O)O)c1cc2ccc(OCC3CC3)cc2s1` (single isomer, unassigned; (-)) [Example 113, (−)-4-[6-(Cyclopropylmethoxy)-1-benzothiophen-2-yl]-4-oxo-2-[2-(4-oxo-1,2,3-benzotriazin-3(4H)-yl)ethyl]butanoic acid] the value was 4300 nM; for `O=C(CC(CCn1nnc2ccccc2c1=O)C(=O)O)c1coc2cc(OCC3CCOCC3)ccc12` (single isomer, unassigned; (-)) [Example 97, (−)-4-Oxo-2-[2-(4-oxo-1,2,3-benzotriazin-3(4H)-yl)ethyl]-4-[6-(tetrahydro-2H-pyran-4-ylmethoxy)-1-benzofur-3-yl]butanoic acid], 25 nM.
`CCCCOc1ccc2cc(C(=O)CC(CCn3nnc4ccccc4c3=O)C(=O)O)oc2c1` (racemic) [Example 61, (+/−)-4-(6-Butoxy-1-benzofur-2-yl)-4-oxo-2-[2-(4-oxo-1,2,3-benzotriazin-3(4H)-yl)ethyl]butanoic acid] showed an IC50 of 4.6 nM. Against the preceding compound, the IC50 is about 5.4-fold lower.
In the case of `CCCCOc1ccc2cc(C(=O)CC(CCn3nnc4ccccc4c3=O)C(=O)O)oc2c1` (single isomer, unassigned; (-)) [Example 62, (−)-4-(6-Butoxy-1-benzofur-2-yl)-4-oxo-2-[2-(4-oxo-1,2,3-benzotriazin-3(4H)-yl)ethyl]butanoic acid] it was 570 nM.
`NC(=O)c1cccc(COc2ccc3oc(C(=O)CC(CCn4nnc5ccccc5c4=O)C(=O)O)cc3c2)c1` (single isomer, unassigned; (-)) [Example 33, (−)-4-{5-[(3-Carbamoylbenzyl)oxy]-1-benzofur-2-yl}-4-oxo-2-[2-(4-oxo-1,2,3-benzotriazin-3(4H)-yl)ethyl]butanoic acid] returned a half-maximal inhibitory concentration (IC50) of 350 nM.
For `CC(C)CCCOc1ccc2cc(C(=O)CC(CCn3nnc4ccccc4c3=O)C(=O)O)oc2c1` (racemic) [Example 70, (+/−)-4-{6-[(4-Methylpentyl)oxy]-1-benzofur-2-yl}-4-oxo-2-[2-(4-oxo-1,2,3-benzotriazin-3(4H)-yl)ethyl]butanoic acid] the value was 4.1 nM; for `O=C(CC(CCn1nnc2ccccc2c1=O)C(=O)O)c1cc2ccc(OCc3ccc(F)cc3)cc2s1` (racemic) [Example 125, (+/−)-4-{6-[(4-Fluorobenzyl)oxy]-1-benzothiophen-2-yl}-4-oxo-2-[2-(4-oxo-1,2,3-benzotriazin-3(4H)-yl)ethyl]butanoic acid], 4 nM.
In the case of `O=C(CC(CCn1nnc2ccccc2c1=O)C(=O)O)c1cc2cc(OCc3ccc(Cl)c(Cl)c3)ccc2o1` (single isomer, unassigned; (+)) [Example 27, (+)-4-{5-[(3,4-Dichlorobenzyl)oxy]-1-benzofur-2-yl}-4-oxo-2-[2-(4-oxo-1,2,3-benzotriazin-3(4H)-yl)ethyl]butanoic acid] it was 0.19 nM; in that of `O=C(CC(CCn1nnc2ccccc2c1=O)C(=O)O)c1noc2cc(OCCC3CCOCC3)ccc12` (racemic) [Example 149, (+/−)-4-Oxo-2-[2-(4-oxo-1,2,3-benzotriazin-3(4H)-yl)ethyl]-4-{6-[2-(tetrahydro-2H-pyran-4-yl)ethoxy]-1,2-benzoxazol-3-yl}butanoic acid], 0.58 nM.
For `O=C(CC(CCn1nnc2ccccc2c1=O)C(=O)O)c1coc2cc(OCc3ccccc3)ccc12` (racemic) [Example 84, (+/−)-4-[6-(Benzyloxy)-1-benzofur-3-yl]-4-oxo-2-[2-(4-oxo-1,2,3-benzotriazin-3(4H)-yl)ethyl]butanoic acid] the value was 4 nM.
Regarding `O=C(CC(CCn1nnc2ccccc2c1=O)C(=O)O)c1noc2cc(OCc3ccc(F)cc3)ccc12` (single isomer, unassigned; enantiomer 2) [Example 138, 4-{6-[(4-Fluorobenzyl)oxy]-1,2-benzoxazol-3-yl}-4-oxo-2-[2-(4-oxo-1,2,3-benzotriazin-3(4H)-yl)ethyl]butanoic acid (enantiomer 2)], half-maximal inhibition (IC50) was put at 0.33 nM.
For `COc1ccc2cc(C(=O)CC(CCn3nnc4ccc(C(F)(F)F)cc4c3=O)C(=O)O)sc2c1` (racemic) [Example 131, (+/−)-4-(6-Methoxy-1-benzothiophen-2-yl)-4-oxo-2-{2-[4-oxo-6-(trifluoromethyl)-1,2,3-benzotriazin-3(4H)-yl]ethyl}butanoic acid] the value was 1.2 nM; for `CCCCOc1ccc2cc(C(=O)CC(CCn3nnc4ccccc4c3=O)C(=O)O)sc2c1` (racemic) [Example 126, (+/−)-4-(6-Butoxy-1-benzothiophen-2-yl)-4-oxo-2-[2-(4-oxo-1,2,3-benzotriazin-3(4H)-yl)ethyl]butanoic acid], 2.9 nM; for `O=C(CC(CCn1nnc2ccccc2c1=O)C(=O)O)c1cc2ccc(OCCC3CCOCC3)cc2o1` (racemic) [Example 54, (+/−)-4-Oxo-2-[2-(4-oxo-1,2,3-benzotriazin-3(4H)-yl)ethyl]-4-{6-[2-(tetrahydro-2H-pyran-4-yl)ethoxy]-1-benzofur-2-yl}butanoic acid], 5.6 nM.

For the origin of these results see patent US20170121315A1, “HETEROBICYCLICALLY SUBSTITUTED 4-OXOBUTANE ACID DERIVATIVES AND USE THEREOF” (priority 2014, published 2017).
